Laboratory results: the NIST ThermoML archive (doi:10.1016/j.jct.2018.03.014)

Assay: cn = amount concentration of the nth substance listed, in mol/dm3
Details: 298.15 K, 101.3 kPa, Liquid, Taylor dispersion method

binary diffusion coefficient (c1 = 0.005): 1.06e-09 m2/s
binary diffusion coefficient (c1 = 0.1): 1.04e-09 m2/s
SMILES: NCC(=O)O [2-aminoacetic acid] + O
